According to patent US20060025394A1, “Estradiol-related compounds and methods of use as anti-tumor agents” (priority 2003, published 2006):
pEC50: −log10 of the molar value. “Also recorded” adds a separate entry of the source.

Key:
DU145 = assay: MTS cell viability assay in DU145; type: cell-based
Protocol: (§1) DU145, LNCaP, PC3, and MCF-7 cells were obtained from the American Type Culture Collection (Manassas, Va.). DU145, PC3, and MCF-7 cells were maintained in Dulbecco's modified Eagle's medium/F-12 supplemented with 5% heat inactivated Fetal Calf Serum and Penicillin/Streptomycin (Invitrogen Life Technologies, Carlsbad, Calif.). LNCaP cells were maintained in RPMI 1640 medium supplemented in the same fashion. Cells were cultured in 75 cm^2 flasks (Falcon, BD Biosciences, Bedford, Mass.) at 37° C. and 5% CO2. For the MTS assay (Example 3), five thousand cells were plated in each well of a 24 well plate (Falcon), were allowed to attach for a 48-hour period in the media described, and changed to a defined medium, (DMEM/F-12 or RPMI1640) supplemented with insulin (BD Biosciences). A 1000× solution of the compound of interest solubilized in DMSO (Sigma, Saint Louis, Mo.) was diluted in the defined media just prior to starting each experiment, and media was refreshed every 48 to 72 hours throughout the experiments.
(§2) . Upon completing five days of treatment, the medium in each well was exchanged for 400 μL of an MTS solution (3-(4,5-dimethylthiazol-2-yl)-5-(3-carboxymethoxyphenyl)-2-(4-sulfophenyl)-2H-tetrazolium, inner salt; O'Toole SA, 2003, Cancer Detect Prev., 2003;27(1):47-54) spiked into media as per the manufacture's instructions (Promega, Madison, Wis.) and incubated for 2 hours at 37° C. before reading the absorbance on the μQuant UV/VIS plate reader, in conjunction with KCjunior Software (Bio-Tek Instruments, Winooski, Vt.) set at 490 nm. All experiments were carried out in quadruplicate, control wells were treated with the carrier DMSO. E2, which is estradiol-17β (Steraloids®, Newport, R.I.) and resveratrol (Sigma) were used as controls. […]

LNCaP = assay: MTS cell viability assay in LNCaP; type: cell-based
Protocol: DU145, LNCaP, PC3, and MCF-7 cells were obtained from the American Type Culture Collection (Manassas, Va.). DU145, PC3, and MCF-7 cells were maintained in Dulbecco's modified Eagle's medium/F-12 supplemented with 5% heat inactivated Fetal Calf Serum and Penicillin/Streptomycin (Invitrogen Life Technologies, Carlsbad, Calif.). LNCaP cells were maintained in RPMI 1640 medium supplemented in the same fashion. Cells were cultured in 75 cm^2 flasks (Falcon, BD Biosciences, Bedford, Mass.) at 37° C. and 5% CO2. […]
(§3) Cell viability assays were carried out with five logs of concentration between 0.1 nM and […] for APVE2, including controls in three prostate cancer cell lines (DU145, LNCaP, and PC3, and in a breast cancer cell line (MCF-7). Upon completing five days of treatment, the medium in each well was exchanged for 400 μL of an MTS solution (3-(4,5-dimethylthiazol-2-yl)-5-(3-carboxymethoxyphenyl)-2-(4-sulfophenyl)-2H-tetrazolium, inner salt; O'Toole SA, 2003, Cancer Detect Prev., 2003;27(1):47-54) spiked into media as per the manufacture's instructions (Promega, Madison, Wis.) and incubated for 2 hours at 37° C. before reading the absorbance on the μQuant UV/VIS plate reader, in conjunction with KCjunior Software (Bio-Tek Instruments, Winooski, Vt.) set at 490 nm. […] EC50 values were calculated with GraphPad Prism software (GraphPad Software Inc., San Diego, Calif.).

PC3 = assay: MTS cell viability assay in PC3; type: cell-based
Protocol: as §1
as §3, with “nm. All experiments were carried out in quadruplicate, control wells were treated with the carrier DMSO. E2, which is estradiol-17β (Steraloids®, Newport, R.I.) and resveratrol (Sigma) were used as controls.” for “nm.”

[1] = tested on: DU145, PC3, and LNCaP cell lines; assay: MTS assay, values averaged or stated over the CaP cell lines; type: cell-based; settings: apoptotic mechanism
Protocol: as §1, §2

ER-α = target: T1, ER-α (Homo sapiens, UniProt P03372); assay: Estrogen receptor relative binding affinity assay, fluorescence polarization, ER-α
T1 construct: purchased Pan Vera, Madison, Wis
T1 sequence (P03372 1-595): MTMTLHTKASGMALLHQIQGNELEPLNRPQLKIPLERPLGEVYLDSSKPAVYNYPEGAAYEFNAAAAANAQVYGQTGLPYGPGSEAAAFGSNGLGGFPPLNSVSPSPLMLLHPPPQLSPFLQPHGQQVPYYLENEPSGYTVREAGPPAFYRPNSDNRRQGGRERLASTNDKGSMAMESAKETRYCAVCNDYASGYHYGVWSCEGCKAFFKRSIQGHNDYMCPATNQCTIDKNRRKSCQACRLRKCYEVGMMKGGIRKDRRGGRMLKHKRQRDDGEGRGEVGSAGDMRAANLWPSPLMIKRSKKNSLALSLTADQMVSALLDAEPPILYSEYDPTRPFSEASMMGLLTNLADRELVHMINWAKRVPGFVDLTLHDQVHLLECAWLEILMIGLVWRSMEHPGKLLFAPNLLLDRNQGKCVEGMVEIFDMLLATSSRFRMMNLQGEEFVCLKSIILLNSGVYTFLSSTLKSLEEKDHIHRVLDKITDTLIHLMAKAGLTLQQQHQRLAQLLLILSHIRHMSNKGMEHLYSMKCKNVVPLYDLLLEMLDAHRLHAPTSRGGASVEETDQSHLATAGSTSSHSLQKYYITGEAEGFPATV
Protocol: All assays were carried out as per the manufacture's instructions with the following modifications.

DU145 cells [2] = assay: Annexin-V-FITC/PI apoptosis assay; type: cell-based; settings: 16 nM, 4th and 5th days
Protocol: Apoptosis was assessed with the annexin-V-FITC apoptosis detection kit (Oncogene Research Products, Boston, Mass.) as per the manufacturer's instructions with E2 and camptothecin (Calbiochem, San Diego, Calif.) as negative and positive controls respectively. Briefly, cells were lifted at the appropriate time points as described above and pelleted. Cells were then resuspended in ice cold binding buffer, and doubly stained with Annexin-V-fluorescein isothiocyanate and propidium iodide (PI) and analyzed within two hours on the FACScan™ flow cytometer (Becton Dickinson) and the Cell Cycle Multi-Cycle system (Phoenix Flow System).

NCR nude mice = settings: 5 to 40 mg/kg/day bolus IM injection, 40-day period
Protocol: Doses included 5 to 40 mg/kg/day bolus IM injection. Toxicity effects were gauged based on changes in animal weight and gross analysis of specific organs including liver, lung, prostate, brain, spleen, heart, and kidney, collected, and fixed in paraffin sections.

DU145 cells [3] = assay: ER competition study, MTS assay with E2 as the competitor; settings: DU145, co- or 1 hour pre-treatment with 1 μM E2

Compound: C[C@]12CC[C@@H]3c4ccc(O)cc4CC[C@H]3[C@@H]1CC[C@@]2(O)/C=C\c1ccc(N)cc1 [APVE2, 17α-20Z-21-[(4-amino)phenyl]-19-norpregna-1,3,5(10),20-tetraene-3,17β-diol]
- decrease in cell number (DU145; DU145, 5 days of treatment at 1 μM): 92±0.9%
- pEC50 (DU145; Homo sapiens, DU-145, 120 h, read-out: EC50 (cell death, MTS)): 7.80
- decrease in cell number (LNCaP; 5 days of treatment at 1 μM): 69±2.3%
- pEC50 (LNCaP; Homo sapiens, 120 h, five day treatment, read-out: EC50 (cell death, MTS)): 8.85
- pEC50 (PC3; Homo sapiens, PC-3, 120 h, PC3, five day treatment, read-out: EC50 (cell death, MTS)): 8.57
- increase in cell proliferation over non-treated controls (PC3; PC3, 1 nM): 20%
- decrease in cell number (PC3; PC3, 5 days of treatment at 1 μM): 81±0.8%
- level of cell death [1]: > 90%
- pEC50 (ER-α; fluorescence polarization, 25° C., 2 hours): 6.44
- ER-α % RBA (ER-α; ratio of EC50 values as compared to E2): 0.87%
- cells staining heavily with both dyes (late stage apoptosis) (DU145 cells [2]): approximately 76%
- general toxicity (animal weight, gross analysis of organs) (NCR nude mice): No apparent detrimental effects
- reversal of cytotoxicity of 16 nM APVE2 by E2 (DU145 cells [3]): not effected; also recorded: not reversed
